Experimental data taken from patent US8906860B2, “Methods and compositions inhibiting tumor cell proliferation” (The Board of Trustees of the University of Illinois, priority 2011, dated 2014).
Where two headings read alike, the source gives them in different places. Square brackets hold non-standard residues; d marks the D form. Ends that are not written are not given here.

Key:
GFP-FoxM1B = assay: Nuclear localization of transfected GFP-FoxM1B in U2OS cells; type: cell-based, human; conditions: 1 μM
Excerpt: FIGS. 7A-H show nuclear localization of GFP-FoxM1B fusion protein following treatment with either pharmacological kinase inhibitors or dominant negative kinases. U20S cells were transiently transfected with CMV GFP-FoxM1B with the indicated pharmacological kinase inhibitors (B-D) or dominant-negative kinase expression vectors (E-H). Cells in panel (A) were untreated.
U2OS cells were transiently transfected in 2 well chamber slides (Nunc) with CMV GFP-FoxM1B expression constructs in the presence or absence of either CMV WT T7-p19^ARF, CMV HA-p19^ARF, or CMV expression constructs containing either N-terminal mutant T7-p19^ARF proteins (Δ1-14, Δ15-25, or Δ26-37) or V5-TAT-p19^ARF proteins (26-44; SEQ ID NO: 11, or 26-55; SEQ ID NO: 12). U2OS cells were transiently transfected with CMV EGFP expression vector containing the TAT-p19^ARF proteins (26-44; SEQ ID NO: 11, or 26-55; SEQ ID NO: 12). Forty-eight hours post transfection, cells were fixed in 4% Para-formaldehyde for 20 minutes at room temperature. GFP fluorescence or immuno-fluorescence with anti-HA antibody following TRITC conjugated secondary antibody was detected using a Zeiss microscope. U2OS cells were treated with 12 μM of the rrrrrrrrrKFVRSRRPRTASCALAFVN (SEQ ID NO: 10) peptide for 24 hours and then analyzed for TRITC fluorescence as described above.

[1] = system: FoxM1B transcriptional activity; assay: FoxM1B transcriptional activity, 6xFoxM1B TATA-luciferase reporter assay in transfected U2OS cells; type: cell-based, human; conditions: 12 μM peptide, 24 hours
Excerpt: A 6×FoxM1B/FoxA TATA-Luciferase utilized 6 copies of the FoxM1B/FoxA binding site (TTTGTTTGTTTG; SEQ ID NO: 6) from the cdx-2 promoter region driving expression of the CMV-TATA box luciferase reporter gene as described previously (Rausa et al., 2003, Mol. Cell. Biol. 23:437-449; Samadani et al., 1996, Mol. Cell. Biol. 16:6273-6284; Ye et al., 1997, Mol. Cell Biol. 17:1626-1641).
Inhibiting Cdk1 activity with either dominant negative (DN) Cdk1 or a pharmacologically active concentration of Alsterpaullone (1 μM) caused an 80% to 90% reduction in FoxM1B transcriptional activity (FIG. 6C). […] Consistent with these findings, stimulation of Cdk1 activity by co-transfection of either CMV Cdc25B or Cdc25C phosphatases enhanced FoxM1B transcriptional activity by 3.4-fold and 1.7-fold, respectfully (FIGS. 6B and 6D). […]
Human osteosarcoma U2OS cells were maintained in DMEM supplemented with 10% fetal calf serum, 1×Pen/Strep and 1×L-Glutamine (Gibco). […] Luciferase activity was determined as percent of wild type FoxM1B activity following normalization to Renilla activity. Experiments were performed at least four times in triplicate and mean±SD determined. […]

[2] = system: CMV-TETO GFP-Foxm1b U2OS clone C3 cells; assay: Soft agar colony formation, Doxycycline induced GFP-FoxM1B U2OS clone C3 cells; type: cell-based, human; conditions: 12 μM peptide, 1 μg/ml Doxycycline, two weeks
Description: (§1) The T-REx™-U2OS cells were purchased from Invitrogen Life Technologies (Catalog No. R712-07). The T-REx™-U2OS cells express the Tet repressor from pCEP4/tetR that was episomally maintained in tissue culture medium containing 10% fetal calf serum and drug selection with 50 μg/ml of Hygromycin B. Tetracycline regulation in the T-REx System was based on the binding of tetracycline to the TET repressor and de-repressing of the CMV-TETO promoter controlling expression of the gene of interest (Yao et al., 1998, Hum Gene Ther 9:1939-1950). The pcDNA4-TO GFP-FoxM1B expression plasmid provided in the T-REx™ system was generated as described previously (Major et al., 2004, Mol. Cell. Biol. 24:2649-2661) and transfected T-REx™-U2OS cells with linearized pcDNA4-TO GFP-Foxm1b expression plasmid to select clonal Doxycycline inducible GFP-Foxm1b U2OS cell lines. CMV-TETO GFP-FoxM1B U2OS clones were isolated by selection for three weeks with tissue culture medium containing 50 μg/ml of Hygromycin B and 250 μg/ml of Zeocin. […] Wild type U2OS cells or CMV-TETO GFP-Foxm1b U2OS clone C3 cells were grown in medium with or without 1 μg/ml of Doxycycline for 2 days prior to either adding the (D-Arg)9-p19^ARF 26-44 peptide or left untreated. […] U2OS cell colonies that were larger than 1 mm in size were scored after two weeks of growth on the soft agar.

parental U2OS cells = assay: Soft agar colony formation, parental U2OS cells; type: cell-based, human; conditions: 12 μM peptide, two weeks
Description: as §1

HCC = conditions: cited from earlier work
S2 cells = conditions: 24 hours
Description: TUNEL assay was used to measure apoptosis in S2 cells treated with WT-blocked, mutant-blocked or WT-unblocked (D-Arg)9-p19^ARF 26-44 peptides. (D-Arg)9-p19^ARF 26-44 peptide treatment of cells was performed in 8-well chamber slides for TUNEL staining. On Day 0, 20,000 cells per well were seeded in the 8-well chamber slides. On Day 1, slides were replenished with fresh media containing one of the following concentrations of either WT-blocked, mutant-blocked or WT-unblocked (D-Arg)9-p19^ARF 26-44 peptides: 10, 15, 25, 30, 40 and 70 μM for 24 hours. On Day 2, TUNEL staining was performed following the manufacture's protocol (ApopTag® Fluorescein In Situ Apoptosis Detection Kit from CHEMICON® International, S7110). The percent of apoptosis of S2 cells (±SD) was measured by counting the number of TUNEL-positive cells (green fluorescence) per 1,000 nuclei as visualized by DAPI (blue fluorescence) counterstaining. The experiment was repeated in a second experiment using the same protocol. Statistical analysis and EC50 calculation were performed using GraphPad Prism software.

[3] = system: p53 null thymic lymphoma cells; assay: Kidney colonization of intravenously injected p53 null thymic lymphoma cells in SCID mice; type: in vivo, mouse; conditions: 2.5 mg/kg intraperitoneal every other day, 10 injections
Description: These experiments were performed to determine if modifying the termini conferred any advantages on these peptides when administered to an animal. Both wild type ARF 26-44 (rrrrrrrrrKFVRSRRPRTASCALAFVN) (SEQ ID NO 10) and mutant ARF 37-44 (rrrrrrrrrSCALAFVN) (SEQ ID NO 21) peptides were synthesized by Genemed Synthesis Inc. (San Antonio, Tex.). The N-terminus of each peptide was fused with nine D-Arg(r) residues. Both wild type and mutant peptides were blocked with amidation on C-terminus and acetylation on N-terminus. For sarcoma cells, mice were treated with 5 mg/kg body weight of peptide every other day for 10 times. For lymphoma cells, mice were treated with 2.5 mg/kg body weight of peptide every other day for 10 times.
To test the therapeutic effect of the ARF-peptide on p53 null tumors in vivo, p53 null lymphoma/sarcoma cells were introduced into the circulation of SCID mice through intravenous injection. ICR SCID mice were obtained from Taconic Farms (Germantown, N.Y.). Both p53 null sarcoma and lymphoma cells were stably transduced before injection with lentivirus carrying a gene conferring luciferase expression. Specifically, cells were stably transduced with pFU-L2G luciferase construct obtained from Sanjiv Sam Gambhir (M. D., Ph.D) of Stanford University as optimized by Dr. Huiping Liu (Liu et al., Proc Natl Acad Sci USA, 107: 18115-18120). This construct enabled expression of both the bioluminescence and green fluorescence protein. eGFP positive cells were sorted by Beckman Coulter MoFlo. 3×10^6 cells were suspended in cold PBS and injected through the tail vein of SCID mice. Live animal imaging was performed using an IVIS Spectrum optical imaging machine (Caliper Life Sciences, Alameda, Calif.). […] Mice were randomized into three groups and were treated with PBS, mutant-peptide or the wild type ARF-peptide for 10 injections every other day by intraperitoneal injection. […] The mice were sacrificed and lung sections were analyzed for tumor colonies. […] For the p53 null thymic lymphoma cells, metastatic growth in kidney was observed, consistent with murine thymic lymphoma cells having a tendency to colonize kidney, liver and spleen (Aoudjit et al., 1998, Blood, 91: 623-629).

## O=C1Cc2c([nH]c3ccc([N+](=O)[O-])cc23)-c2ccccc2N1 [Alsterpaullone]
GFP-FoxM1B
  Nuclear localization of transfected CMV GFP-FoxM1B protein: Neither DN-Cdk1 nor Alsterpaullone (1 μM) altered nuclear localization

## rrrrrrrrrKFVRSRRPRTASCALAFVN ([dR][dR][dR][dR][dR][dR][dR][dR][dR]KFVRSRRPRTASCALAFVN; not fully specified (N-terminus, C-terminus); printed as rrrrrrrrrKFVRSRRPRTASCALAFVN; also: end groups differ between preparations (TRITC N-term/acetyl C-term vs Ac N-term/amide C-term); listed as Mus musculus) [(D-Arg)9-p19^ARF 26-44 peptide, p19ARF 26-44 peptide containing nine D-Arg residues at the N-terminus]
[1]
  Effect on FoxM1B transcriptional activity: significant reduction in FoxM1B transcriptional activity
[2]
  FoxM1B induced colony formation on soft agar: significantly diminished the ability of induced GFP-FoxM1B to stimulate colony formation
Parental U2OS cells
  Colony formation on soft agar: significantly diminished the ability of the parental U2OS cells to form colonies on soft agar
HCC; mouse HCC (DEN/PB induced)
  HCC tumor size / progression: effective in diminishing tumor size in HCC
HCC; mouse HCC cells
  Metastasis of HCC cells: effectively prevented pulmonary metastasis of HCC cells

## rrrrrrrrrKFVRSRRPRTASCALAFVN (not fully specified (N-terminus, C-terminus); printed as rrrrrrrrrKFVRSRRPRTASCALAFVN; UniProt Q64364 26-44, looked up, fragment) [WT Unblocked]
S2 cells; Experiment 1, 10 μM/Well
  % of TUNEL Positive S2 Cells, Mean: 2.46%
S2 cells; Experiment 1, 25 μM/Well
  % of TUNEL Positive S2 Cells, Mean: 1.27%
S2 cells; Experiment 1, 30 μM/Well
  % of TUNEL Positive S2 Cells, Mean: 5.59%
S2 cells; Experiment 1, 40 μM/Well
  % of TUNEL Positive S2 Cells, Mean: 19.94%
S2 cells; Experiment 2, 10 μM/Well
  % of TUNEL Positive S2 Cells, Mean: 6.79%
S2 cells; Experiment 2, 15 μM/Well
  % of TUNEL Positive S2 Cells, Mean: 7.56%
S2 cells; Experiment 2, 25 μM/Well
  % of TUNEL Positive S2 Cells, Mean: 11.19%
S2 cells; Experiment 2, 40 μM/Well
  % of TUNEL Positive S2 Cells, Mean: 20.51%
S2 cells; Experiment 2, 70 μM/Well
  % of TUNEL Positive S2 Cells, Mean: 30.34%
S2 cells; S2 cells, 10-70 μM
  Apoptosis induction compared between peptides (TUNEL): showed some activity compared to the mutant-blocked peptide at doses higher than 30 μM

## rrrrrrrrrSCALAFVN (SCALAFVN-NH2; not fully specified (N-terminus); printed as rrrrrrrrrSCALAFVN; UniProt Q64364 37-44, looked up, fragment) [mutant ARF peptide, reference compound]
[3]
  Kidney tumor mass at sacrifice: large tumor masses were found in the kidney
[3]; around 20 days after inoculation
  Luciferase signal from colonized lymphoma cells: displayed strong luciferase signals
